Results on 14 compounds are retold here after US6492381B1, “Tricyclic carbamate compounds useful for inhibition of G-protein function and for treatment of proliferative diseases” (Schering Corp., priority 1993, dated 2002).

The test system of series [1] is T24-BAG4 human bladder carcinoma cells expressing an activated H-ras gene. The series can be described thus: Cell Mat assay: inhibition of tumor cell growth. It counts as cell-based. To be noted: for IC50: tIC50. On the procedure: (§1) Normal human HEPM fibroblasts were planted in 3.5 cm dishes at a density of 5×10^4 cells/dish in 2 ml growth medium, and incubated for 3-5 d to achieve confluence. Medium was aspirated from each dish and the indicator tumor cells, T24-BAG4 human bladder carcinoma cells expressing an activated H-ras gene, were planted on top of the fibroblast monolayer at a density of 2×10^3cells/dish in 2 ml growth medium, and allowed to attach overnight. Compound-induced colony inhibition was assayed by addition of serial dilutions of compound directly to the growth medium 24 h after tumor cell planting, and incubating cells for an additional 14 d to allow colony formation. Assays were terminated by rinsing monolayers twice with phosphate-buffered saline (PBS), fixing the monolayers with a 1% glutaraldehyde solution in PBS, then visualizing tumor cells by staining with X-Gal (Price, J., et al., Lineage analysis in the vertebrate nervous system by retrovirus-mediated gene transfer, Proc. Natl. Acad. Sci.84, 156-160(1987)). […] Both IC50 values were obtained by determining the density of tumor cells and mat cells by visual inspection and enumeration of cells per colony and the number of colonies under the microscope. The therapeutic index of the compound was quantitatively expressed as the ratio of mIC50/tIC50, with values greater than one indicative of tumor target specificity.

Series [2] relates to Ras-CVLS processing in COS monkey kidney cells. The series can be described thus: Cell-based assay: Ras-CVLS processing in transfected COS cells (immunoblot). To be noted: Primates; inhibition of Ras-CVLS processing in Ras-transfected COS cells. The source says:
2. Cell-Based Assay: Transient expression of val^12-Ha-Ras-CVLS and val^12-Ha-Ras-CVLL in COS monkey kidney cells: Effect of farnesyl protein transferase inhibitors on Ras processing and on disordered cell growth induced by transforming Ras.
COS monkey kidney cells were transfected by electroporation with the plasmid pSV-SPORT (Gibco/BRL) containing a cDNA insert encoding either Ras-CVLS or Ras-CVLL, leading to transient overexpression of a Ras substrate for either farnesyl protein transferase or geranylgeranyl protein transferase I, respectively (see above).
Following electroporation, cells were plated into 6-well tissue culture dishes containing 1.5 ml of Dulbecco's-modified Eagle's media (GIBCO, Inc.) supplemented with 10% fetal calf serum and the appropriate farnesyl protein transferase inhibitors. After 24 hours, media was removed and fresh media containing the appropriate drugs was re-added.
48 hours after electroporation cells were examined under the microscope to monitor disordered cell growth induced by transforming Ras. Cells expressing transforming Ras become more rounded and refractile and overgrow the monolayer, reminiscent of the transformed phenotype. Cells were then photographed, washed twice with 1 ml of cold phosphate-buffered saline (PBS) and removed from the dish by scraping with a rubber policeman into 1 ml of a buffer containing 25 mM Tris, pH 8.0; 1 mM ethylenediamine tetraacetic acid; 1 mM phenylmethylsulfonyl fluoride; 50 μM leupeptin; and 0.1 μM pepstatin. Cells were lysed by homogenization and cell debris was removed by centrifugation at 2000×g for 10 min.
Cellular protein was precipitated by addition of ice-cold trichloroacetic acid and redissolved in 100 μl of SDS-electrophoresis sample buffer. Samples (5-10 μl) were loaded onto 14% polyacrylamide minigels (Novex, Inc.) and electrophoresed until the tracking dye neared the bottom of the gel. Proteins resolved on the gels were electroblotted onto nitrocellulose membranes for immunodetection.
Membranes were blocked by incubation overnight at 4° C. in PBS containing 2.5% dried milk and 0.5% Tween-20 and then incubated with a Ras-specific monoclonal antibody, Y13-259 (Furth, M. E., et al., (1982), Monoclonal antibodies to the p21 products of the transforming gene of Harvey murine sarcome virus and of the cellular ras gene family, J. Virol. 43: 294-304), in PBS containing 1% fetal calf serum for one hour at room temperature. After washing, membranes were incubated for one hour at room temperature with a 1:5000 dilution of secondary antibody, rabbit anti-rat IgG conjugated to horseradish peroxidase, in PBS containing 1% fetal calf serum. The presence of processed and unprocessed Ras-CVLS or Ras-CVLL was detected using a calorimetric peroxidase reagent (4-chloro-1-naphthol) as described by the manufacturer (Bio-Rad).
For orientation: A western blot detects proteins with antibodies after separation by electrophoresis.

Series [3] has as its target T1, geranylgeranyl protein transferase (GGPT) I (Rattus norvegicus, UniProt P53610+Q04631).
T1 construct: were partially purified from rat brain by ammonium sulfate fractionation followed by Q-Sepharose; from tissue; host or cells: rat brain
Briefly: In vitro enzyme assay: inhibition of geranylgeranyl protein transferase I. It counts as biochemical. The source says: (§2) 1. In vitro enzyme assays: Inhibition of farnesyl protein transferase and geranylgeranyl protein transferase.
Both farnesyl protein transferase (FPT) and geranylgeranyl protein transferase (GGPT) I were partially purified from rat brain by ammonium sulfate fractionation followed by Q-Sepharose (Pharmacia, Inc.) anion exchange chromatography essentially as described by Yokoyama et al (Yokoyama, K., et al., (1991). A protein geranylgeranyltransferase from bovine brain: Implications for protein prenylation specificity, Proc. Natl. Acad. Sci USA 88: 5302-5306, the disclosure of which is incorporated herein by reference thereto). Human farnesyl protein transferase was also expressed in E. coli, using cDNA clones encoding both the α and β subunits. The methods used were similar to those published (Omer, C. et al., (1993), Characterization of recombinant human farnesyl protein transferase: Cloning, expression, farnesyl diphosphate binding, and functional homology with yeast prenyl-protein transferase, Biochemistry 32:5167-5176). Human farnesyl protein transferase was partially-purified from the soluble protein fraction of E. coli as described above. the tricyclic farnesyl protein transferase inhibitors disclosed herein inhibited both human and rat enzyme with similar potencies. Two forms of val^12-Ha-Ras protein were prepared as substrates for these enzymes, differing in their carboxy terminal sequence. One form terminated in cysteine-valine-leucine-serine (Ras-CVLS) the other in cystein-valine-leucine-leucine (Ras-CVLL). Ras-CVLS is a substrate for the farnesyl protein transferase while Ras-CVLL is a substrate for geranylgeranyl protein transferase I. The cDNAs encoding these proteins were constructed so that the proteins contain an amino-terminal extension of 6 histidine residues. Both proteins were expressed in Escherichia coli and purified using metal chelate affinity chromatography. The radiolabelled isoprenyl pyrophosphate substrates, [^3H]farnesyl pyrophosphate and [^3H]geranylgeranyl pyrophosphate, were purchased from DuPont/New England Nuclear.
The geranylgeranyl protein transferase I assay was essentially identical to the farnesyl protein transferase assay described above, with two exceptions: [^3H]geranylgeranylpyrophosphate replaced farnesyl pyrophosphate as the isoprenoid donor and Ras-CVLL was the protein acceptor. This is similar to the assay reported by Casey et al (Casey, P. J., et al., (1991), Enzymatic modification of proteins with a geranylgeranyl isoprenoid, Proc. Natl. Acad. Sci, USA 88: 8631-8635, the disclosure of which is incorporated herein by reference thereto).

In series [4] the target is T2, farnesyl protein transferase (FPT) (Rattus norvegicus, UniProt Q02293+Q04631).
T2 construct: were partially purified from rat brain by ammonium sulfate fractionation followed by Q-Sepharose; from tissue; host or cells: rat brain
The series can be described thus: In vitro enzyme assay: inhibition of farnesyl protein transferase. The series is classed as biochemical. On the procedure: as §2
Human farnesyl protein transferase was also expressed in E. coli, using cDNA clones encoding both the α and β subunits. […] Two forms of val^12-Ha-Ras protein were prepared as substrates for these enzymes, differing in their carboxy terminal sequence. One form terminated in cysteine-valine-leucine-serine (Ras-CVLS) the other in cystein-valine-leucine-leucine (Ras-CVLL). Ras-CVLS is a substrate for the farnesyl protein transferase while Ras-CVLL is a substrate for geranylgeranyl protein transferase I. The cDNAs encoding these proteins were constructed so that the proteins contain an amino-terminal extension of 6 histidine residues. Both proteins were expressed in Escherichia coli and purified using metal chelate affinity chromatography. The radiolabelled isoprenyl pyrophosphate substrates, [^3H]farnesyl pyrophosphate and [^3H]geranylgeranyl pyrophosphate, were purchased from DuPont/New England Nuclear.
The reaction was allowed to proceed for 30 minutes at room temperature and then stopped with 0.5 ml of 4% sodium dodecyl sulfate (SDS) followed by 0.5 ml of cold 30% trichloracetic acid (TCA). Samples were allowed to sit on ice for 45 minutes and precipitated Ras protein was then collected on GF/C filter paper mats using a Brandel cell harvester. […] Percent inhibition was calculated relative to the DMSO vehicle control.

The test system of series [5] is Normal human HEPM fibroblasts. The series can be described thus: Cell Mat assay: inhibition of normal cell growth. The series is classed as cell-based. As to conditions: Homo sapiens, Fibroblast, mIC50, normal cell monolayer. On the procedure: as §1
[6] abbreviates: Ras-CVLS farnesylation, partially purified rat brain FPT, read-out: FPT IC50.

Like-named read-outs stand apart in the source and are kept apart here.

As to `CCOC(=O)N1CCC(C2c3ccc(Cl)cc3C=Cc3ccc[n+]([O-])c32)CC1` (stereo not shown), the melting point (commonly the temperature of the solid-liquid transition) fell in the range of 78.6 to 89.4 °C.
Compound `O=C(Oc1cccnc1)N1CCC(C2c3ccc(Cl)cc3C=Cc3cccnc32)CC1` (stereo not shown) yielded a melting point of 102.1 to 103.9 °C.
With `CCSC(=O)N1CCC(=C2c3ccc(Cl)cc3CCc3cccnc32)CC1` [Compound 500.00], the “selective antiproliferative activity against Ras-transformed cells versus normal cells” value (“selective antiproliferative activity” below) in series [1] is on record as “no”. The IC50 worked out at 25 µM in series [1] (Homo sapiens), 22 µM in series [2], 1.6 µM in series [4] (setting [6]) and 25 µM in series [5]. In addition, in series [3] (FPT versus GGPT), the “selective for FPT inhibition (versus GGPT)” value is recorded as “at least 31 fold”. For the same compound, the inhibition (in general, the drop in the measured response relative to a control, in per cent) at 50 µM in series [3] (at 50 μM) was found to be 7%.
As to `CCOC(=O)N1CCN(C2c3ccc(Cl)cc3CCc3cccnc32)CC1` (stereo not shown) [Compound 550.00, Ethyl 4-(8-chloro-6,11-dihydro-11H-benzo[5,6]cyclohepta[1,2-b]pyridin-11-yl)-1-piperazinecarboxylate], the IC50 in series [1] (Homo sapiens) is 18 µM; in series [1], 25 µM; in series [2] it was greater than 20 µM; in series [4] (setting [6]), 7.2 µM; in series [5], greater than 50 µM.
As to `O=C(Oc1ccccc1)N1CCC(=C2c3ccc(Cl)cc3CCc3cccnc32)CC1` [Compound 565.00], the IC50 in series [2] is 6.7 µM; in series [4] (setting [6]), 0.84 µM.
`CC(C)COC(=O)N1CCC(=C2c3ccc(Cl)cc3CCc3cccnc32)CC1` [Compound 575.00]: the IC50 in series [1] (Homo sapiens) was 37 µM; in series [2] it was 9.9 µM; in series [4] (setting [6]) it was 4.4 µM; in series [5], greater than 50 µM.
Take `O=C(Sc1ccccc1)N1CCC(=C2c3ccc(Cl)cc3CCc3cccnc32)CC1` [Compound 595.00, 4-(8-chloro-5,6-dihydro-11H-benzo[5,6]cyclohepta[1,2-b]-pyridin-11ylidene)-1-piperinecarbothioic Acid, S-phenyl Ester]: the melting point lay within 175 to 177 °C. The IC50 in series [1] (Homo sapiens) was 18 µM. The same compound had an IC50 in series [2] of 5.1 µM. In series [5], this compound showed an IC50 greater than 50 µM.
For `O=C(Oc1cccnc1)N1CCN([C@@H]2c3ccc(Cl)cc3CCc3cccnc32)CC1` [Compound 600.00, (+) 3-pyridyl 4-(8-chloro-6,11-dihydro-5H-benzo[5,6]-cyclohepta[1,2-b]pyridin-11(R)-yl)-1-piperazine Carboxylate], the IC50 in series [1] (Homo sapiens) amounted to 12.5 µM; in series [2] it was 6.9 µM; in series [4], 1.28 µM; in series [5] it was 50 µM.
As to `O=C(Oc1cccnc1)N1CCN([C@H]2c3ccc(Cl)cc3CCc3cccnc32)CC1` [Compound 608.00, (−) 3-pyridyl 4-(8-chloro-6,11-dihydro-5H-benzo[5,6]-cyclohepta[1,2-b]pyridin-11(S)-yl)-1-piperazinecarboxylate], the IC50 in series [1] (Homo sapiens) is 37 µM; in series [2] it was 3.9 µM; in series [4], 0.82 µM; in series [5], greater than 50 µM.
In the case of `O=C(Oc1cccnc1)N1CCN(C2c3ccc(Cl)cc3CCc3cccnc32)CC1` (stereo not shown) [Compound 610.00, 3-pyridyl 4-(8-chloro-6,11-dihydro-5H-benzo[5,6]-cyclohepta[1,2-b]pyridin-11-yl)-1-piperazinecarboxylate], the results for the IC50 in series [2] and in series [4] were 3 µM and 0.5 µM, respectively.
With `O=C(Oc1ccccc1)N1CCN(C2c3ccc(Cl)cc3CCc3cccnc32)CC1` (stereo not shown) [Compound 612.00], the “selective antiproliferative activity” value in series [1] is reported as “little”. Further, the IC50 was 50 µM in series [1] (Homo sapiens), 4.8 µM in series [2], 0.8 µM in series [4] and greater than 50 µM in series [5].
Regarding `CCOC(=O)N1CCC(C2c3ccc(Cl)cc3CCc3cccnc32)CC1` (stereo not shown) [Compound 618.00], the “selective antiproliferative activity” value in series [1] is listed as “little”. Further, the IC50 was greater than 50 µM in series [1] (Homo sapiens); 20.5 µM in series [2]; greater than 50 µM in series [3] (Ras-CVLL as acceptor, read-out: GGPT IC 50); 1.22 µM in series [4] (setting [6]); greater than 50 µM in series [5].
`CCOC(=O)N1CCC(=C2c3ccc(Cl)cc3CCc3c(On4nnc5ccccc54)ccnc32)CC1` [Compound 654.00, Ethyl 4-[4-[(1H-benzotriazol-1-yl)oxy]-8-chloro-5,6-dihydro-11H-benzo[5,6]cyclohepta[1,2-b]pyridin-11-ylidene]-1-piperidine Carbamate] gave a melting point of 181.5 to 183.9 °C. The IC50 in series [4] (setting [6]) is 11.6 µM.
In the case of `CN1CCC(OC(=O)N2CCN(C3c4ccc(Cl)cc4CCc4cc(Br)cnc43)CC2)CC1` (stereo not shown) [Compound 803.00], the IC50 was greater than 5 µM in series [2] and 0.31 µM in series [4] (setting [6]).
